Biological target: hMC4R (Homo sapiens, UniProt P32245)
Test: Saturation binding of Eu-labeled probe to Hek293 cells overexpressing hMC4R
Conditions: Kd of labeled ligand compared with parental ligand MSH(4)

Sequence of hMC4R (P32245 whole entry): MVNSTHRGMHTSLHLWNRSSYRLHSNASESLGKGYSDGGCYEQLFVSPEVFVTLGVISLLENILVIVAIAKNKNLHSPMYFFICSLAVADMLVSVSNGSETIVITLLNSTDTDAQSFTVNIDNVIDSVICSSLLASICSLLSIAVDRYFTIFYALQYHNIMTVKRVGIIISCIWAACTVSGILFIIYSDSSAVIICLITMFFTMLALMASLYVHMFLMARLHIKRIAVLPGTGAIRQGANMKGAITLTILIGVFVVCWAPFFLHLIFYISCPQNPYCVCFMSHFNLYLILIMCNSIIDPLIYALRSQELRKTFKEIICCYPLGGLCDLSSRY

Affinity for hMC4R, fold lower than the parental ligand: approximately 10 fold
Structure (SMILES): N=C(N)NCCC[C@H](NC(=O)[C@@H](Cc1ccccc1)NC(=O)[C@H](Cc1c[nH]cn1)NC(=O)COCC(=O)NCCCOCCOCCOCCCNC(=O)CN(CCN(CCN(CC(=O)O)CC(=O)O)CC(=O)O)CC(=O)O)C(=O)N[C@@H](Cc1c[nH]c2ccccc12)C(N)=O [compound 1, Eu-DTPA-PEGO-His-DPhe-Arg-Trp-NH2]

Source: publication PMC2857964 (Bioorganic & medicinal chemistry letters, 2010)
